Reference: patent US10688092B2, “Compositions and methods of using nintedanib for improving glaucoma surgery success” (Cloudbreak Therapeutics, LLC, priority 2016, dated 2020)

Key:
[1] = test system: patients with medically uncontrolled open-angle glaucoma scheduled for a primary trabeculectomy; assay: Clinical study of topical nintedanib 0.2% as adjunct therapy to trabeculectomy; format: in vivo, human
From the text: Topical nintedanib 0.2% as adjunct therapy to increase success of trabeculectomy in a clinical study. A randomized, double-masked, placebo-controlled, 12-month experimental trial to test the effects of topical nintedanib 0.2% on the success rate of trabeculectomy. The study design would be as described by Vandewalle et. al. (Vandewalle et. al. Br J Ophthalmol. 2014, January; 98(1):73-8).
Patients with medically uncontrolled open-angle glaucoma scheduled for a primary trabeculectomy would be enrolled and randomized to receive one drop TID of either nintedanib or placebo solutions. The treatment would start immediately after surgery and would last for a month. Approximately 150 patients would be enrolled in the study.
Surgeries would be performed under general or retrobulbar anaesthesia by experienced surgeons using a modified Moorfields technique. IOP would be measured by Goldmann applanation tonometry. Two measurements would be taken by masked observers and averaged to determine the mean IOP if two values were within 2 mm Hg. A third measurement would be taken if the difference between the first two determinations is >2 mm Hg.
Patients would be examined on day 1; at weeks 1, 2, and 4; and at months 3, 6, and 12 after trabeculectomy. […] The number of postoperative IOP-lowering medications, intra- and postoperative complications, and surgical interventions would also be recorded. […]

[2] = test system: rabbit model of glaucoma filtration surgery; assay: Rabbit glaucoma filtration surgery model; format: in vivo, New Zealand White rabbits
From the text: The rabbit glaucoma surgery model is used to illustrate use of the presently disclosed methods for improving the success of glaucoma filtration surgery. Specifically, an established rabbit model of glaucoma filtration surgery would be used to study the effects of nintedanib 0.2% solution on the wound-healing events after surgery. The surgical procedure is as described in Wong et al. (Wong et al. Invest Ophthalmol Vis Sci. 2003; 44(3):1097-1103). Briefly, a partial thickness 8-0 silk corneal traction suture is placed superiorly, and the eye pulled down. A fornix based conjunctival flap is raised, after which a blunt dissection of the subconjunctival space is performed of approximately 5 mm along the limbus and 8 mm posteriorly. A microvitreoretinal (MVR) blade is used to make a partial-thickness scleral incision 3 to 4 mm behind the limbus, and a scleral tunnel to the corneal stroma is fashioned. A 22-gauge, 25-mm intravenous cannula (Venflon 2; Beckton Dickinson, Oxford, UK) is passed through a scleral tunnel anteriorly until the cannula needle is visible in the clear cornea. Entry into the anterior chamber is made with a cannular needle, which is then withdrawn as the cannula is advanced to the mid-pupillary area. The cannula is trimmed and beveled at its scleral end so that it protrudes 1 mm from the insertion point, and a 10-0 nylon suture is placed to fix the tube to the scleral surface. The conjunctival incision is closed with two interrupted sutures and a central, mattress-type 10-0 nylon suture attached to a needle (B/V 100-4; Ethicon) to give a water-tight closure. One drop each of guttae chloramphenicol and Betnesol-N(Glaxo Wellcome, Uxbridge, UK) ointment is instilled at the end of surgery.
Twenty female New Zealand White rabbits (2-2.4 kg, 12-14 weeks old; Charles River) would be acclimatized for 5 days before the experiments start. Glaucoma surgery would be performed on the left eye as described. After surgery, the rabbits would be arranged into two groups and one group would be treated with vehicle and another with nintedanib 0.2% solution. Treatments would begin immediately after surgery and the treatment would be TID for 2 weeks. The survival of the bleb formed by the surgery and the intraocular pressure (IOP) would be followed for 28 days. Histological analysis of the scar tissue would be performed at the end of the study.

SMILES: COC(=O)c1ccc2c(c1)NC(=O)/C2=C(\Nc1ccc(N(C)C(=O)CN2CCN(C)CC2)cc1)c1ccccc1 [nintedanib, Methyl (3Z)-3-{[(4-{methyl[(4-methylpiperazin-1-yl)acetyl]amino}phenyl)amino] (phenyl)methylidene}-2-oxo-2,3-dihydro-1H-indole-6-carboxylate]
- IOP compared to baseline ([1]; 12-month visit, one drop TID for a month after surgery): effectively reduced
- absolute success rate of glaucoma surgery (FIG. 4) ([1]; vs the placebo group, differences statistically significant at time points after 6 months): higher
- bleb survival at end of study ([2]; day 28, no bleb would survive in the vehicle group): most of the bleb would survive
- histological analysis of scar tissue at the surgical site ([2]; end of study, compared with vehicle group): less scar tissue
- Surgery success outcome ([2]; nintedanib 0.2% solution TID for 2 weeks after surgery, compared with vehicle group): significantly prolonged
- bleb survival (survival curve of the bleb after surgery, FIG. 2) ([2]; nintedanib 0.2% solution TID for 2 weeks, followed for 28 days, compared with vehicle group): substantially prolonged
- IOP during the follow up period after the surgery (FIG. 3) ([2]; nintedanib 0.2% solution TID for 2 weeks, followed for 28 days, IOP increased gradually in vehicle group): below 20 mm
